{"source": "paper PMC6925622", "about": "(Clinical pharmacology and therapeutics, 2019)", "key": {"CYP3A5 and CYP3A4": {"tested_on": "CYP3A5 and CYP3A4", "conditions": "preferentially inhibits CYP3A4; cited from earlier work"}, "CYP3A5 [1]": {"tested_on": "CYP3A5", "conditions": "cited from earlier work"}, "CYP3A4/5": {"tested_on": "CYP3A4/5", "test": "Clinical midazolam-ketoconazole interaction study", "type": "in vivo, human", "conditions": "for CLpo (oral clearance) / Cmax /Dose: oral midazolam"}, "CYP3A4": {"tested_on": "CYP3A4", "conditions": "midazolam is the CYP3A probe, cited from earlier work"}, "CYP3A5 [2]": {"tested_on": "CYP3A5", "conditions": "midazolam is the CYP3A probe, cited from earlier work"}, "[3]": {"test": "Clinical study control phase: midazolam pharmacokinetics by CYP3A5 genotype", "type": "in vivo, human", "conditions": "for Clearance Oral GM (90% CI): Observed, single dose of midazolam, blood clearance; for clearance: iv, 0.05 mg/kg, CLsys (systemic clearance), IV midazolam; for clearance / bioavailability / Tmax / half-life / CLpo (oral clearance) / Cmax /Dose: midazolam alone (control); for bioavailability: Fpo (oral bioavailability); for Tmax / CLpo (oral clearance) / Cmax /Dose: oral midazolam; for half-life: t1/2 (terminal half-life); for intestinal availability (FG): midazolam alone"}, "[4]": {"conditions": "cited from earlier work"}, "[5]": {"conditions": "human, serum, geometric mean, CYP3A5*1/*1 (n=6)"}, "[6]": {"conditions": "human, serum, geometric mean, CYP3A5*1/*3 and *1/*6 (n=9)"}, "[7]": {"conditions": "human, serum, geometric mean, CYP3A5*3/*3 non-expressers (n=8)"}, "[8]": {"conditions": "human, serum, geometric mean, CYP3A5 expressers (n=15)"}, "[9]": {"conditions": "human, serum, CYP3A5*3/*7 (n=1)"}, "[10]": {"conditions": "geometric mean, CYP3A5*1/*1 (n=6)"}, "[11]": {"conditions": "geometric mean, CYP3A5*1/*3 and *1/*6 (n=9)"}, "[12]": {"conditions": "geometric mean, CYP3A5 expressers (n=15)"}, "[13]": {"conditions": "after 200 mg KTZ, CYP3A5*3/*7 (n=1)"}, "[14]": {"conditions": "after 400 mg KTZ, CYP3A5*3/*7 (n=1)"}, "[15]": {"conditions": "geometric mean, after 200 mg KTZ, CYP3A5*3/*3 non-expressers"}, "[16]": {"conditions": "geometric mean, after 200 mg KTZ, CYP3A5 expressers"}, "[17]": {"conditions": "geometric mean, after 400 mg KTZ, CYP3A5*1/*1"}, "[18]": {"conditions": "geometric mean, after 400 mg KTZ, CYP3A5*1/*3 and *1/*6"}, "[19]": {"conditions": "geometric mean, after 400 mg KTZ, CYP3A5*3/*3 non-expressers"}, "[20]": {"conditions": "geometric mean, after 400 mg KTZ, CYP3A5 expressers"}}, "note": "Where “and” joins values, the source holds several entries; their conditions need not be identical. Identical values can stand only once."}
{"smiles": "CCC(C)n1ncn(-c2ccc(N3CCN(c4ccc(OCC5COC(Cn6cncn6)(c6ccc(Cl)cc6Cl)O5)cc4)CC3)cc2)c1=O", "note": "(centres unmarked) [Itraconazole]", "values": [{"measurement": "Ki,3A5/Ki,3A4", "setting": "CYP3A5 and CYP3A4", "result": "≥ 7"}]}
{"smiles": "OC(Cn1cncn1)(Cn1cncn1)c1ccc(F)cc1F", "note": "[fluconazole]", "values": [{"measurement": "changes of midazolam metabolites formation across CYP3A5 genotypes", "setting": "CYP3A5 [1]", "result": "did not result in differential changes"}]}
{"smiles": "CC(=O)N1CCN(c2ccc(OCC3COC(Cn4ccnc4)(c4ccc(Cl)cc4Cl)O3)cc2)CC1", "note": "(centres unmarked) [ketoconazole]", "values": [{"measurement": "difference in the AUC0–10hr of ketoconazole between the 6th and 7th day of dosing", "setting": "CYP3A4/5; ketoconazole 200 mg or 400 mg", "result": "no significant difference"}, {"measurement": "inhibition of gut CYP3A", "setting": "CYP3A4/5; ketoconazole 200 and 400 mg doses", "result": "almost complete inhibition"}, {"measurement": "Ki towards CYP3A4", "setting": "CYP3A4", "result": "[…]"}, {"measurement": "Ki", "setting": "CYP3A4; read-out: Ki towards CYP3A4", "result": "[…]"}, {"measurement": "Ki towards CYP3A5", "setting": "CYP3A5 [2]", "result": "[…]"}, {"measurement": "Ki", "setting": "CYP3A5 [2]; read-out: Ki towards CYP3A5", "result": "[…]"}]}
{"smiles": "Cc1ncc2n1-c1ccc(Cl)cc1C(c1ccccc1F)=NC2", "note": "[midazolam]", "values": [{"measurement": "Clearance Oral GM (90% CI)", "setting": "[3]; CYP3A5 expressers", "result": "140 (114.5–171.3) L/hr"}, {"measurement": "Clearance Oral GM (90% CI)", "setting": "[3]; CYP3A5 non-expressers", "result": "105 (83.5–131.5) L/hr"}, {"measurement": "clearance", "setting": "[3]; [5]", "result": 540, "unit": "mL/min"}, {"measurement": "clearance", "setting": "[3]; [6]", "result": 550, "unit": "mL/min"}, {"measurement": "clearance", "setting": "[3]; [7]", "result": 402, "unit": "mL/min"}, {"measurement": "clearance", "setting": "[3]; [8]", "result": 547, "unit": "mL/min"}, {"measurement": "clearance", "setting": "[3]; [9]", "result": 318, "unit": "mL/min"}, {"measurement": "bioavailability", "setting": "[3]; human, serum, po, 4 mg, geometric mean, CYP3A5*1/*1 (n=6)", "result": 22, "unit": "%"}, {"measurement": "bioavailability", "setting": "[3]; human, serum, po, 4 mg, geometric mean, CYP3A5*1/*3 and *1/*6 (n=9)", "result": 23, "unit": "%"}, {"measurement": "bioavailability", "setting": "[3]; human, serum, po, 4 mg, geometric mean, CYP3A5*3/*3 non-expressers (n=8)", "result": 26, "unit": "%"}, {"measurement": "bioavailability", "setting": "[3]; human, serum, po, 4 mg, geometric mean, CYP3A5 expressers (n=15)", "result": 23, "unit": "%"}, {"measurement": "bioavailability", "setting": "[3]; human, serum, po, 4 mg, CYP3A5*3/*7 (n=1)", "result": 36, "unit": "%"}, {"measurement": "Tmax", "setting": "[3]; human, serum, po, 4 mg, Tmax, CYP3A5*3/*7 (n=1)", "result": 1, "unit": "h"}, {"measurement": "half-life", "setting": "[3]; [5]", "result": 2.76, "unit": "h"}, {"measurement": "half-life", "setting": "[3]; [6]", "result": 2.75, "unit": "h"}, {"measurement": "half-life", "setting": "[3]; [7]", "result": 3.05, "unit": "h"}, {"measurement": "half-life", "setting": "[3]; [8]", "result": 2.75, "unit": "h"}, {"measurement": "half-life", "setting": "[3]; [9]", "result": 5.25, "unit": "h"}, {"measurement": "intestinal availability (FG)", "setting": "[3]; CYP3A5 expressers", "result": "0.35±0.09"}, {"measurement": "intestinal availability (FG)", "setting": "[3]; CYP3A5 non-expressers", "result": "0.33±0.06"}, {"measurement": "CLpo (oral clearance)", "setting": "[3]; [10]", "result": 144, "unit": "L/h"}, {"measurement": "Cmax /Dose", "setting": "[3]; [10]", "result": 1.5, "unit": "ng/mL"}, {"measurement": "CLpo (oral clearance)", "setting": "[3]; [11]", "result": 137, "unit": "L/h"}, {"measurement": "Cmax /Dose", "setting": "[3]; [11]", "result": 1.6, "unit": "ng/mL"}, {"measurement": "CLpo (oral clearance)", "setting": "[3]; [12]", "result": "140 ± 66 L/h and 140 L/h"}, {"measurement": "Cmax /Dose", "setting": "[3]; [12]", "result": "1.6 ± 0.6 ng/mL and 1.6 ng/mL"}, {"measurement": "CLpo (oral clearance)", "setting": "[3]; CYP3A5*3/*7 (n=1)", "result": 55.7, "unit": "L/h"}, {"measurement": "Cmax /Dose", "setting": "[3]; CYP3A5*3/*7 (n=1)", "result": 3.4, "unit": "ng/mL"}, {"measurement": "Tmax", "setting": "[3]; CYP3A5 expressers (n=15)", "result": 0.7, "unit": "h"}, {"measurement": "inter-individual variability for the CLsys", "setting": "[3]; this study", "result": 2.3, "unit": "fold"}, {"measurement": "inter-individual variability of CLpo", "setting": "[3]; this study", "result": 7.0, "unit": "fold"}, {"measurement": "CLpo (oral clearance)", "setting": "CYP3A4/5; [13]", "result": 4.6, "unit": "L/h"}, {"measurement": "Cmax /Dose", "setting": "CYP3A4/5; [13]", "result": 18.1, "unit": "ng/mL"}, {"measurement": "CLpo (oral clearance)", "setting": "CYP3A4/5; [14]", "result": 2.7, "unit": "L/h"}, {"measurement": "Cmax /Dose", "setting": "CYP3A4/5; [14]", "result": 21.2, "unit": "ng/mL"}, {"measurement": "Cmax /Dose", "setting": "CYP3A4/5; geometric mean, after 200 mg KTZ, CYP3A5*1/*1", "result": 9.6, "unit": "ng/mL"}, {"measurement": "Cmax /Dose", "setting": "CYP3A4/5; geometric mean, after 200 mg KTZ, CYP3A5*1/*3 and *1/*6", "result": 7.9, "unit": "ng/mL"}, {"measurement": "CLpo (oral clearance)", "setting": "CYP3A4/5; [15]", "result": "7.0 ± 2.0 L/h and 7.0 L/h"}, {"measurement": "Cmax /Dose", "setting": "CYP3A4/5; [15]", "result": 12.3, "unit": "ng/mL"}, {"measurement": "CLpo (oral clearance)", "setting": "CYP3A4/5; [16]", "result": "13.3 ± 5.6", "unit": "L/h"}, {"measurement": "Cmax /Dose", "setting": "CYP3A4/5; [16]", "result": 8.5, "unit": "ng/mL"}, {"measurement": "CLpo (oral clearance)", "setting": "CYP3A4/5; [17]", "result": 8.2, "unit": "L/h"}, {"measurement": "Cmax /Dose", "setting": "CYP3A4/5; [17]", "result": 9.4, "unit": "ng/mL"}, {"measurement": "CLpo (oral clearance)", "setting": "CYP3A4/5; [18]", "result": 8.6, "unit": "L/h"}, {"measurement": "Cmax /Dose", "setting": "CYP3A4/5; [18]", "result": 8.9, "unit": "ng/mL"}, {"measurement": "CLpo (oral clearance)", "setting": "CYP3A4/5; [19]", "result": "4.9 ± 1.3 L/h and 4.9 L/h"}, {"measurement": "Cmax /Dose", "setting": "CYP3A4/5; [19]", "result": 15.8, "unit": "ng/mL"}, {"measurement": "CLpo (oral clearance)", "setting": "CYP3A4/5; [20]", "result": "8.4 ± 3.5 L/h and 8.4 L/h"}, {"measurement": "Cmax /Dose", "setting": "CYP3A4/5; [20]", "result": 9.1, "unit": "ng/mL"}, {"measurement": "midazolam FG in SimCYP", "setting": "[4]; derived using plasma clearance and hepatic plasma flow", "result": 0.57}, {"measurement": "inter-individual variability of midazolam clearance in other studies", "setting": "[4]; other studies", "result": "3.3- to 5.2 fold"}]}
